Laboratory results taken from article PMC8073907, “Peptide targeting of lysophosphatidylinositol-sensing GPR55 for osteoclastogenesis tuning” (Cell Communication and Signaling : CCS, 2021).

Key:
[1] = tested on: ssGPR55-K80A and ssGPR55-Q87A; assay: LPI-induced MAPK activation in shGPR55-HeLa clones expressing ssGPR55 mutants; format: cell-based, human; conditions: 10 µM 18:0 LPI
Description: The construct of haemagglutinin (HA)-tagged human GPR55 in pcDNA3 (HA-GPR55) was a gift from Prof. K. Mackie, Indiana University, Bloomington, IN, USA [39], while the construct ss-3 × HA-GPR55 in pcDNA3.1 (ssGPR55) with a triple HA tag at the N-terminus and an optimised signal sequence (ss, derived from amino acids 1–33 of the human growth hormone: […]) for efficient surface expression was from Prof. A. Irving, Dundee University, UK [40]. For both constructs, mutations were introduced by site-directed mutagenesis using QuickChange kits (Stratagene, La Jolla, CA, USA), according to the manufacturer instructions. The primers for the K80A mutation were 5′-[…]-3′ and 5′-[…]-3′ (Tm, 70.6 °C), and for Q87A were 5′-[…]-3′ and 5′-[…]-3′ (Tm, 73.1 °C).
(§1) HeLa cells were plated at 1.5 × 10^5 cells/well in six-well plates in their growth medium without antibiotics. Twenty-four hours later, the cells were transfected with 2.5 µg/well pcDNA3.1, or the mutants ssGPR55-K80A, ssGPR55-Q87A, or 1.25 µg/well (complemented with 1.25 µg/well empty vector) ssGPR55, using Lipofectamine 2000, according to the manufacturer instructions. The different cDNA amounts were necessary to reach equivalent plasma-membrane expression of the receptors, as the mutants were expressed at lower levels, as verified by FACS analyses, and in line with previous reports.
For stable interference of GPR55, HeLa cells were plated at 1.5 × 10^5 cells/well in six-well plates in growth medium without antibiotics, and 24 h later, the cells were transfected with 1.7 µg/well OmicsLink short hairpin (sh)RNA expression clone CSHCTR001-CU6 (shCTRL) or clone HSH022476-3-CU6 (shGPR55) from GeneCopoeia (Rockville, MD, USA), using Lipofectamine 2000, according the manufacturer instructions. Forty-eight hours after transfection, HeLa clones stably expressing shRNAs were selected in growth medium containing 0.3 µg/mL puromycin. The efficiency of interference was monitored by real-time PCR using the primers listed in the Additional file 1: Table S1. HPRT1 was followed as a housekeeping gene. […]

[2] = tested on: osteoclasts derived from RAW264.7 cells; assay: Osteoclast functional assay (bone resorption on bovine cortical bone slices); format: cell-based, murine; conditions: 15 ng/mL RANKL, 7 days
Experimental: RAW264.7 cells were plated in differentiation medium at a density of 1250 cells/100 µL on 0.2-mm-thick bovine cortical bone slices (BoneSlices.com, Jelling, Denmark) in 96-well plates. Six hours later, 100 µL differentiation medium with RANKL (15 ng/mL, final concentration) was added, in the presence of a carrier or in combination with the GPR55 modulators. The media with the different compounds were replaced every 48 h, for a total of 7 days. At the end of this period, the cells were detached with a 10% bleach solution, and the resorption excavations were visualised by using Toluidine Blue staining (Sigma-Aldrich). Images of the resorption areas were obtained under the microscope (SW380T; Swift Optical Instruments, Inc., TX, USA) using the 10 × objective, and acquired with a digital camera (Swiftcam SC1003; Swift Optical Instruments, Inc.). The total eroded surface underwent blinded quantification using ImageJ (NIH), and was subdivided into pit and trench surfaces. Pits were characterised as round excavations with well-defined edges where the ratio between length and width was < 2.0. Trenches were defined as elongated excavations with well-defined edges whose length was at least twice the wide, and with clear signs of continued resorption. The prevalence of trenches was calculated as a proportion (%) of the trench surface relative to the total eroded surface.

[3] = tested on: ssGPR55 wild-type; assay: GPR55-internalisation assay, wild-type (FACS); format: cell-based, human; conditions: 10 µM soybean LPI
Experimental: as §1, with “reports. […]” for “reports.”
For the GPR55-internalisation assay, after stimulation, the HeLa cells were washed twice with cold HBSS^++, stained while adhered with the monoclonal anti-HA antibody (1:1000) in PBS plus 3% BSA for 1 h on ice, washed three times with cold PBS, incubated with the Alexa488-tagged anti-mouse antibody (1:800) in PBS plus 3% BSA for 45 min on ice. […] The collected cells were centrifuged at 300×g, suspended in PBS plus 3% BSA, and analysed by FACS.

lysophosphatidylinositol [LPI]
LPI-stimulated activation of p38 [1]: no LPI-stimulated activation of p38
LPI-stimulated activation of ERK2, 5 min ([1]; 5 min): no response at 5 min
LPI-stimulated activation of ERK2, 10 min ([1]; 10 min): reduced response at 10 min
effect on relative trench contribution ([2]; 0.5 µM ML-191 or 1 µM 18:0 LPI): did not affect the relative contributions of the trenches
increase of total resorbing activity induced by RANKL ([2]; 1 µM 18:0 LPI, versus RANKL + 0.004% faf-BSA): 54%
time to plateau of LPI-induced internalisation ([3]; overexpressed ssGPR55 in HeLa cells): 10 min
reduction of cell-surface level of receptor ([3]; ssGPR55 wild-type, HeLa, 15 min, three independent experiments): 30%
